Laboratory results from PubChem BioAssay AID182 (DTP/NCI, 2004).
“And” between values parts separate entries of the source, which are not always exact repeats. Equal values may be shown once. Toxic doses and inconclusive results are not listed. Starred links: 1 amine or outer side, 2 acyl side, 3 side chain; linkers in the order of their positions; H or OH if unused. Positions of bridges follow the written chain, without caps; N, C: chain ends. Non-standard residues stand in square brackets, D forms with d. Residues, ends and D or L forms follow the SMILES beside them. Chains are numbered I, II in the order given. Actinocin(9to1) = Cc1c2oc3c(C)ccc(C(=O)[*:1])c3nc-2c(C(=O)[*:2])c(N)c1=O; aThr = C[C@H](O)[C@H](N)C(=O)O; NMeV = CN[C@H](C(=O)O)C(C)C; Sar = CNCC(=O)O

Test system: BDF1 mice, P388/ADR leukemia ip, median survival T/C
Assay: NCI In Vivo Anticancer Drug Screen. Data for tumor model P388 Leukemia resistant to Adriamycin; NSC 123127, Developed at Scr 06 and 41 (intraperitoneal) in B6D2F1 (BDF1) mice
Details: endpoint: median survival time, higher = longer survival
Method: The antitumor activity of compounds was measured in mice bearing transplantable tumors. Survival or tumor size were measured and the results are expressed as the measurement made in the treated group (T) divided by the measurement made in the vehicle treated control group (C). The tumor model used in this assay is P388 Leukemia resistant to Adriamycin; NSC 123127, Developed at Scr 06 and 41 (intraperitoneal) in B6D2F1 (BDF1) mice

[1] = dose: 108.0 mg/kg/injection, schedule: Q04DX003 (ip), vehicle: Klucel (hydroxypropylcellulose) (HPC)
[2] = dose: 180.0 mg/kg/injection, schedule: Q04DX003 (ip), vehicle: Klucel (hydroxypropylcellulose) (HPC)
[3] = dose: 1.73 mg/kg/injection, schedule: Q04DX003 (ip), vehicle: water
[4] = dose: 2.88 mg/kg/injection, schedule: Q04DX003 (ip), vehicle: water
[5] = dose: 4.8 mg/kg/injection, schedule: Q04DX003 (ip), vehicle: water

COc1cc(O)c2c(c1)C(=O)c1cc3c(c(O)c1C2=O)C(OC1OC(C)C(O)C(O)C1OC)C(OC)C(C)(O)C3=O (stereo unspecified)
T/C (dose: 25.9 mg/kg/injection, schedule: Q01DX009 (ip), vehicle: Klucel (hydroxypropylcellulose) (HPC)): 96 % of control
T/C (dose: 43.2 mg/kg/injection, schedule: Q01DX009 (ip), vehicle: Klucel (hydroxypropylcellulose) (HPC)): 96 % of control
T/C (dose: 72.0 mg/kg/injection, schedule: Q01DX009 (ip), vehicle: Klucel (hydroxypropylcellulose) (HPC)): 99 % of control
T/C [1]: 100 % of control
T/C (dose: 120.0 mg/kg/injection, schedule: Q01DX009 (ip), vehicle: Klucel (hydroxypropylcellulose) (HPC)): 103 % of control
T/C [2]: 105 % of control

COc1cccc2c1C(=O)c1c(O)c3c(c(O)c1C2=O)C[C@@](O)(C(=O)CO)C[C@@H]3OC1CC(N)C(O)C(C)O1 (stereo partly specified)
T/C (dose: 0.65 mg/kg/injection, schedule: Q01DX009 (ip), vehicle: saline): 107 % of control
T/C (dose: 1.08 mg/kg/injection, schedule: Q01DX009 (ip), vehicle: saline): 109 % of control
T/C (dose: 1.3 mg/kg/injection, schedule: Q04DX003 (ip), vehicle: saline): 112 % of control
T/C (dose: 1.3 mg/kg/injection, schedule: Q04DX003 (ip), vehicle: water): 102 % of control and 115 % of control
T/C (dose: 1.5 mg/kg/injection, schedule: Q04DX003 (ip), vehicle: water): 100 % of control
T/C [3]: 116 % of control
T/C (dose: 1.8 mg/kg/injection, schedule: Q01DX009 (ip), vehicle: saline): 110 % of control
T/C (dose: 2.16 mg/kg/injection, schedule: Q04DX003 (ip), vehicle: saline): 109 % of control
T/C (dose: 2.16 mg/kg/injection, schedule: Q04DX003 (ip), vehicle: water): 99 % of control and 120 % of control and 102 % of control
T/C [4]: 124 % of control
T/C (dose: 3.0 mg/kg/injection, schedule: Q01DX009 (ip), vehicle: saline): 96 % of control
T/C (dose: 3.0 mg/kg/injection, schedule: Q04DX003 (ip), vehicle: water): 100 % of control
T/C (dose: 3.6 mg/kg/injection, schedule: Q04DX003 (ip), vehicle: saline): 120 % of control
T/C (dose: 3.6 mg/kg/injection, schedule: Q04DX003 (ip), vehicle: water): 115 % of control and 122 % of control and 100 % of control
T/C [5]: 103 % of control
T/C (dose: 6.0 mg/kg/injection, schedule: Q04DX003 (ip), vehicle: water): 99 % of control [middle of 4 runs]
T/C (dose: 10.0 mg/kg/injection, schedule: Q04DX003 (ip), vehicle: water): 98 % of control
T/C (dose: 66.7 mg/kg/injection, schedule: Q04DX003 (ip), vehicle: water): 96 % of control

Cc1c2oc3c(C)ccc(C(=O)N[C@@H]4C(=O)N[C@H](C(C)C)C(=O)N5CCC[C@H]5C(=O)N(C)CC(=O)N(C)[C@@H](C(C)C)C(=O)O[C@H]4C)c3nc-2c(C(=O)N[C@@H]2C(=O)N[C@H](C(C)C)C(=O)N3CCC[C@H]3C(=O)N(C)CC(=O)N(C)[C@@H](C(C)C)C(=O)O[C@H]2C)c(N)c1=O (I: [aThr][dV]P[Sar][NMeV] / II: [aThr][dV]P[Sar][NMeV]; ester I:1-I:C, II:1-II:C; linker I:N-II:N via Actinocin(9to1))
T/C (dose: 0.3 mg/kg/injection, schedule: Q04DX003 (ip), vehicle: saline): 173 % of control
T/C (dose: 108.0 micrograms/kg/injection, schedule: Q04DX003 (ip), vehicle: saline + alcohol): 111 % of control and 201 % of control
T/C (dose: 180.0 micrograms/kg/injection, schedule: Q04DX003 (ip), vehicle: saline + alcohol): 118 % of control
T/C (dose: 300.0 micrograms/kg/injection, schedule: Q04DX003 (ip), vehicle: saline + alcohol): 116 % of control and 117 % of control
T/C (dose: 500.0 micrograms/kg/injection, schedule: Q04DX003 (ip), vehicle: saline + alcohol): 88 % of control

CC[C@H]1CN2CCc3cc(OC)c(OC)cc3[C@@H]2C[C@@H]1C[C@H]1NCCc2c1[nH]c1ccc(OC)cc21
T/C (dose: 10.8 mg/kg/injection, schedule: Q04DX003 (ip), vehicle: acid diluted with saline): 108 % of control
T/C (dose: 18.0 mg/kg/injection, schedule: Q04DX003 (ip), vehicle: acid diluted with saline): 107 % of control
T/C (dose: 30.0 mg/kg/injection, schedule: Q04DX003 (ip), vehicle: acid diluted with saline): 110 % of control

COc1cc([C@@H]2c3cc4c(cc3[C@@H](OC3OC5CO[C@@H](c6cccs6)OC5C(O)C3O)[C@H]3COC(=O)[C@H]23)OCO4)cc(OC)c1O (stereo partly specified)
T/C (dose: 13.33 mg/kg/injection, schedule: Q04DX003 (ip), vehicle: saline): 123 % of control

CC(CN1CC(=O)NC(=O)C1)N1CC(=O)NC(=O)C1 (stereo unspecified)
T/C (dose: 86.4 mg/kg/injection, schedule: Q04DX003 (ip), vehicle: Klucel (hydroxypropylcellulose) (HPC)): 106 % of control
T/C (dose: 100.0 mg/kg/injection, schedule: Q04DX003 (ip), vehicle: Klucel (hydroxypropylcellulose) (HPC)): 100 % of control
T/C [1]: 104 % of control
T/C (dose: 144.0 mg/kg/injection, schedule: Q04DX003 (ip), vehicle: Klucel (hydroxypropylcellulose) (HPC)): 122 % of control
T/C [2]: 102 % of control
T/C (dose: 200.0 mg/kg/injection, schedule: Q04DX003 (ip), vehicle: Klucel (hydroxypropylcellulose) (HPC)): 93 % of control
T/C (dose: 216.0 mg/kg/injection, schedule: Q04DX003 (ip), vehicle: Klucel (hydroxypropylcellulose) (HPC)): 107 % of control
T/C (dose: 300.0 mg/kg/injection, schedule: Q04DX003 (ip), vehicle: Klucel (hydroxypropylcellulose) (HPC)): 102 % of control
T/C (dose: 400.0 mg/kg/injection, schedule: Q04DX003 (ip), vehicle: Klucel (hydroxypropylcellulose) (HPC)): 93 % of control

COc1cc2c[n+](C)c3c4cc5c(cc4ccc3c2cc1OC)OCO5
T/C (dose: 28.8 mg/kg/injection, schedule: Q04DX003 (ip), vehicle: Klucel (hydroxypropylcellulose) (HPC)): 123 % of control
T/C (dose: 48.0 mg/kg/injection, schedule: Q04DX003 (ip), vehicle: Klucel (hydroxypropylcellulose) (HPC)): 105 % of control
T/C (dose: 55.0 mg/kg/injection, schedule: Q04DX003 (ip), vehicle: other): 107 % of control
T/C (dose: 80.0 mg/kg/injection, schedule: Q04DX003 (ip), vehicle: Klucel (hydroxypropylcellulose) (HPC)): 124 % of control
T/C (dose: 92.0 mg/kg/injection, schedule: Q04DX003 (ip), vehicle: other): 106 % of control

COc1cccc2c1C(=O)c1c(O)c3c(c(O)c1C2=O)C[C@@](O)(C(C)=O)C[C@@H]3OC1CC(N)C(O)C(C)O1 (stereo partly specified)
T/C [3]: 122 % of control
T/C [4]: 114 % of control
T/C [5]: 121 % of control
T/C (dose: 8.0 mg/kg/injection, schedule: Q04DX003 (ip), vehicle: water): 104 % of control and 107 % of control

O=P1(N(CCCl)CCCl)NCCCO1 (stereo unspecified)
T/C (dose: 108.0 mg/kg/injection, schedule: Q01DX001 (ip), vehicle: saline): 476 % of control
T/C (dose: 180.0 mg/kg/injection, schedule: Q01DX001 (ip), vehicle: saline): 475 % of control

CCC1(O)CC2CN(CCc3c([nH]c4ccccc34)C(C(=O)OC)(c3cc4c(cc3OC)N(C)C3C(O)(C(=O)NCCSSCCNC(=O)C5(O)C(O)C6(CC)C=CCN7CCC8(c9cc(C%10(C(=O)OC)CC%11CN(CCc%12c%10[nH]c%10ccccc%12%10)CC(O)(CC)C%11)c(OC)cc9N(C)C58)C76)C(O)C5(CC)C=CCN6CCC43C65)C2)C1 (stereo unspecified)
T/C (dose: 432.0 micrograms/kg/injection, schedule: Q04DX003 (ip), vehicle: saline): 111 % of control
T/C (dose: 720.0 micrograms/kg/injection, schedule: Q04DX003 (ip), vehicle: saline): 124 % of control
T/C (dose: 2000.0 micrograms/kg/injection, schedule: Q04DX003 (ip), vehicle: saline): 116 % of control

CCN(CC)CCNc1ccc(CO)c2sc3ccccc3c(=O)c12
T/C (dose: 17.3 mg/kg/injection, schedule: Q01DX009 (ip), vehicle: water): 93 % of control
T/C (dose: 25.2 mg/kg/injection, schedule: Q01DX009 (ip), vehicle: water): 108 % of control
T/C (dose: 28.8 mg/kg/injection, schedule: Q01DX009 (ip), vehicle: water): 100 % of control
T/C (dose: 42.0 mg/kg/injection, schedule: Q01DX009 (ip), vehicle: water): 117 % of control
T/C (dose: 48.0 mg/kg/injection, schedule: Q01DX009 (ip), vehicle: water): 104 % of control
T/C (dose: 70.0 mg/kg/injection, schedule: Q01DX009 (ip), vehicle: water): 104 % of control
T/C (dose: 117.0 mg/kg/injection, schedule: Q01DX009 (ip), vehicle: water): 88 % of control

CCC1(O)CC(OC2CC(N(C)C)C(OC3CC(O)C(OC4CCC(=O)C(C)O4)C(C)O3)C(C)O2)c2c(cc3c(c2O)C(=O)c2c(O)ccc(O)c2C3=O)C1C(=O)OC (stereo unspecified)
T/C [3]: 105 % of control
T/C [4]: 107 % of control
T/C [5]: 119 % of control

CO[C@H]1Nc2c(ccc(C)c2O)C(=O)N2C=C(/C=C/C(N)=O)C[C@@H]12
T/C (dose: 216.0 micrograms/kg/injection, schedule: Q04DX003 (ip), vehicle: saline + alcohol): 154 % of control
T/C (dose: 252.0 micrograms/kg/injection, schedule: Q04DX003 (ip), vehicle: saline + alcohol): 194 % of control
T/C (dose: 360.0 micrograms/kg/injection, schedule: Q04DX003 (ip), vehicle: saline + alcohol): 176 % of control
T/C (dose: 420.0 micrograms/kg/injection, schedule: Q04DX003 (ip), vehicle: saline + alcohol): 176 % of control
T/C (dose: 600.0 micrograms/kg/injection, schedule: Q04DX003 (ip), vehicle: saline + alcohol): 90 % of control
